Assay results published in patent US9212168B2 (priority 2011, dated 2015).
pEC50: −log10 of the molar value.

Test system: HCV genotype 1a replicon
Experiment: HCV genotype 1a replicon assay (NS3 protease activity readout)
Format: cell-based, hepatitis C virus
Conditions: for pEC50: Hepatitis C virus, read-out: Genotype 1a, HCV genotype 1a replicon; for Genotype 1a: HCV genotype 1a replicon
Experimental: Assay 2: HCV Genotype 1a Replicon Assay
The HCV genotype 1a replicon cell line was obtained from Apath LLC (APC89; Huh7.5 cell background). This subgenomic replicon contains the N-terminus of the HCV core protein fused to the neomycin-resistance selectable marker. The EMCV IRES lies downstream and drives expression of the non-structural proteins NS3-NS5B. Compound potencies were determined using the NS3-specific protease activity in lysates as a measurement of compound inhibition of replicon levels.
Cells were grown at 37° C. in a 5% CO2 humidified incubator in DMEM (Invitrogen) with 10% FBS (HyClone), 1×NEAA (Invitrogen), 1× Pen-Strep (Invitrogen), and 850 μg/mL G418 (Invitrogen). On day 1 of the assay, cells were plated at 15,000 cells/well in black 96-well tissue culture plates (Costar) in 200 μL media lacking G418. Four hours later, once the cells had adhered, the media was removed and replaced with media (no G418) containing dose-responses of test compounds. Compounds were initially diluted in DMSO and then diluted another 200× in media to bring the final DMSO concentration down to 0.5%. The cells were incubated with test compounds for 48 or 72 hours. At the end of the incubation period, media and compound were removed from the plates.
To determine the NS3-specific protease activity in lysates, the cells were lysed at room temperature in 50 μL/well of 50 mM Hepes pH 7.5, 150 mM NaCl, 15% Glycerol, 0.15% Triton X-100, 10 mM DTT for 20 minutes with shaking. 50 μL of an NS3/4a protease-specific FRET substrate (Anaspec RET S1 Cat#22991) was then added to the wells at a final concentration of 15 μM. The plates were incubated at 37° C. for 20 minutes, which corresponds to a timepoint at which the protease activity is still in the linear phase. Protease activity was determined by measuring fluorescence (Excitation: 340 nm; Emission: 509 nm).
To analyze the data, the fluorescence was plotted vs. the compound concentration, and EC50 values were determined from a 4-parameter robust fit model using GraphPad Prism software.

SMILES | pEC50 | Genotype 1a
COC(=O)N[C@H](C(=O)N1C[C@@H](C)C[C@H]1c1nc(-c2ccc(-c3cc(Cl)c(NC(=O)c4ccc(N5CCN(C(=O)C6(C)COC6)C[C@H]5C)nc4)cc3OC(F)(F)F)cc2)c[nH]1)C(C)C [Example 12-48] | > 10.00 | 
COC(=O)N[C@H](C(=O)N1C[C@@H](C)C[C@H]1c1nc(-c2ccc(-c3ccc(C(=O)Nc4ccc(N5CCN(C(=O)C6CC6)C[C@H]5C)nc4)cc3OC(F)(F)F)cc2)c(Cl)[nH]1)C(C)C [Example 4-31] |  | C (C represents pEC50 between and 9 and about 10, (EC50 between 1 nM and 0.1 nM))
CNC(=O)N1C[C@@H](C)N(c2ccc(C(=O)Nc3cc(OC(F)(F)F)c(-c4ccc(-c5c[nH]c([C@@H]6C[C@H](C)CN6C(=O)[C@H](NC(=O)OC)C(C)(C)C)n5)cc4)cc3Cl)cn2)C[C@@H]1C [Example 7-2] |  | A (A represents a pEC50 value between 6 and 8 (EC50 between 1 μM and 10 nM))
COC(=O)NC(C(=O)N1C[C@@H](C)C[C@H]1c1nc(-c2ccc(-c3c(F)cc(NC(=O)c4ccc(N5CCN(C(=O)C(C)(C)C)C[C@H]5C)nc4)cc3F)cc2)c[nH]1)C1CCCCC1 (stereo partly drawn) [Example 21-4] |  | C (C represents pEC50 between and 9 and about 10, (EC50 between 1 nM and 0.1 nM))
COC(=O)N[C@H](C(=O)N1C[C@@H](C)C[C@H]1c1nc(-c2ccc(-c3ccc(C(=O)Nc4ccc(N5CCN(C(=O)C(C)(C)C)C[C@H]5C)nc4)cc3OC(F)(F)F)cc2)c[nH]1)C(C)C [Example 4-36] |  | C (C represents pEC50 between and 9 and about 10, (EC50 between 1 nM and 0.1 nM))
COC(=O)N[C@H](C(=O)N1C[C@@H](C(N)=O)C[C@H]1c1nc(-c2ccc(-c3cc(Cl)c(NC(=O)c4ccc(N5CCN(C(=O)OC(C)(C)C)C[C@H]5C)nc4)cc3OC(F)(F)F)cc2)c[nH]1)C(C)C [Example 15-10] | 8.00 to 9.00 | 
COC(=O)N[C@H](C(=O)N1C[C@@H](C)C[C@H]1c1nc(-c2ccc(-c3ccc(C(=O)Nc4ccc(N5CCN(C(=O)[C@H]6CC6(C)C)C[C@H]5C)nc4)cc3OC(F)(F)F)cc2)c(Cl)[nH]1)C(C)C [Example 4-29] |  | D (D represents pEC50>10 (EC50<0.1 nM))
COC(=O)N[C@H](C(=O)N1C[C@@H](C)C[C@H]1c1nc(-c2ccc(-c3cc(F)c(NC(=O)c4ccc(N5CCN(C(=O)C6CC67CC7)C[C@H]5C)nc4)cc3OC(F)(F)F)cc2)c[nH]1)C(C)C (stereo partly drawn) [Example 1-88] |  | D (D represents pEC50>10 (EC50<0.1 nM))
CNC(=O)N1C[C@@H](C)N(c2ccc(C(=O)Nc3cc(OC(F)(F)F)c(-c4ccc(-c5c[nH]c([C@@H]6C[C@H](C)CN6C(=O)C(c6ccccc6)N(C)C)n5)cc4)cc3Cl)cn2)C[C@@H]1C (stereo partly drawn) [Example 7-11] | > 10.00 | 
COC[C@H]1C[C@@H](c2nc(-c3ccc(-c4cc(Cl)c(NC(=O)c5ccc(N6CCN(C(=O)C(C)(C)C)C[C@H]6C)nc5)cc4OC(F)(F)F)cc3)c[nH]2)N(C(=O)[C@@H](NC(=O)OC)C(C)C)C1 [Example 15-13] | > 10.00 | 
CCOCCC(C)(C)C(=O)N1CCN(c2ccc(C(=O)Nc3cc(OC(F)(F)F)c(-c4ccc(-c5c[nH]c([C@@H]6C[C@H](C)CN6C(=O)[C@@H](NC(=O)OC)C(C)C)n5)cc4)cc3Cl)cn2)[C@H](C)C1 [Example 12-3] | > 10.00 | 
COC(=O)N[C@H](C(=O)N1C[C@@H](C)C[C@H]1c1nc(-c2ccc(-c3cc(Cl)c(NC(=O)c4ccc(N5CCN(C(=O)C(C)(C)C)C[C@H]5C)nc4)cc3C(F)(F)F)cc2)c[nH]1)C1CCCCC1 [Example 19-8] |  | B (B represents pEC50 between 8 and 9 (EC50 between 1 and 10 nM))
COC(=O)NC(C(=O)N1C[C@@H](C)C[C@H]1c1nc(-c2ccc(-c3cc(Cl)c(C(=O)Nc4ccc(N5CCN(C(=O)C(C)(C)C)C[C@H]5C)nc4)cc3OC(F)(F)F)cc2)c[nH]1)C1C[C@@H](C)O[C@@H](C)C1 (stereo partly drawn) [Example 23-2] |  | D (D represents pEC50>10 (EC50<0.1 nM))
CC(C)[C@@H](C(=O)N1C[C@@H](C)C[C@H]1c1nc(-c2ccc(-c3cc(Cl)c(NC(=O)c4ccc(N5CCN(C(=O)C(C)(C)C)C[C@H]5C)nc4)cc3OC(F)(F)F)cc2)c[nH]1)N1CCCCC1 [Example 13-2] | 6.00 to 8.00 | 
COC(=O)N[C@@H](CSC)C(=O)N1C[C@@H](C)C[C@H]1c1nc(-c2ccc(-c3cc(Cl)c(NC(=O)c4ccc(N5CCN(C(=O)C(C)(C)C)C[C@H]5C)nc4)cc3OC(F)(F)F)cc2)c[nH]1 [Example 13-7] | > 10.00 | 
[2H]C([2H])([2H])C1(C([2H])([2H])[2H])CC1C(=O)N1CCN(c2ccc(C(=O)Nc3cc(Cl)c(-c4ccc(-c5c[nH]c([C@@H]6C[C@H](C)CN6C(=O)[C@@H](NC(=O)OC)C(C)C)n5)cc4)cc3F)cn2)[C@H](C)C1 (stereo partly drawn) [Example 1-100] |  | D (D represents pEC50>10 (EC50<0.1 nM))
CCO[C@H]1C[C@@H](c2nc(-c3ccc(-c4cc(Cl)c(C(=O)Nc5ccc(N6CCN(C(=O)C(C)(C)C)C[C@H]6C)nc5)cc4OC(F)(F)F)cc3)c[nH]2)N(C(=O)[C@@H](NC(=O)OC)C(C)C)C1 [Example 6-27] | 9.00 to 10.00 | 
COC(=O)N[C@H](C(=O)N1C[C@@H](C)C[C@H]1c1nc(-c2ccc(-c3cc(Cl)c(NC(=O)c4ccc(N5CCN(C(=O)C(C)(C)CNS(C)(=O)=O)C[C@H]5C)nc4)cc3OC(F)(F)F)cc2)c[nH]1)C(C)C [Example 12-46] | > 10.00 | 
COC(=O)N[C@H](C(=O)N1C[C@@H](C)C[C@H]1c1nc(-c2ccc(-c3ccc(C(=O)Nc4ccc(N5CCN(C(=O)C6CC6(Cl)Cl)C[C@H]5C)nc4)cc3OC(F)(F)F)cc2)c[nH]1)C(C)C (stereo partly drawn) [Example 4-32] |  | C (C represents pEC50 between and 9 and about 10, (EC50 between 1 nM and 0.1 nM))
COC(=O)NC(C(=O)N1C[C@@H](C)C[C@H]1c1nc(-c2ccc(-c3ccc(C(=O)Nc4ccc(N5CCN(C(=O)C(C)(C)C)C[C@H]5C)nc4)c(Cl)c3OC(F)(F)F)cc2)c[nH]1)C(C)C (stereo partly drawn) [Example 25-4] | 9.00 to 10.00 | 
COC(=O)N[C@H](C(=O)N1C[C@@H](C)C[C@H]1c1nc(-c2ccc(-c3cc(Cl)c(NC(=O)c4ccc(N5CCN(C(=O)C(C)(C)CO)C(CO)C5)nc4)cc3OC(F)(F)F)cc2)c[nH]1)C(C)C (stereo partly drawn) [Example 14-3] |  | C (C represents pEC50 between and 9 and about 10, (EC50 between 1 nM and 0.1 nM))
CNC(=O)N1CCN(c2ccc(NC(=O)c3ccc(-c4ccc(-c5c[nH]c([C@@H]6C[C@H](C)CN6C(=O)[C@@H](NC(=O)OC)C(C)C)n5)cc4)c(OC(F)(F)F)c3)cn2)[C@H](C)C1 [Example 4-34] |  | C (C represents pEC50 between and 9 and about 10, (EC50 between 1 nM and 0.1 nM))
COC(=O)N[C@H](C(=O)N1C[C@@H](C)C[C@H]1c1nc(-c2ccc(-c3ccc(NC(=O)c4ccc(N5CCN(C(=O)C6CC6)C[C@H]5C)nc4)cc3C(F)(F)F)cc2)c[nH]1)C(C)C [Example 1-65] |  | C (C represents pEC50 between and 9 and about 10, (EC50 between 1 nM and 0.1 nM))
COCC1(C(=O)N2CCN(c3ccc(C(=O)Nc4cc(OC(F)(F)F)c(-c5ccc(-c6c[nH]c([C@@H]7C[C@H](C)CN7C(=O)[C@@H](NC(=O)OC)C(C)C)n6)cc5)cc4Cl)cn3)[C@H](C)C2)CC1 [Example 12-44] | > 10.00 | 
